According to patent US8188078B2 (Sanofi-Aventis, priority 2007, dated 2012):
One block for each compound: values may come before it.

Key:
[1] = target: T1, c-MET (Homo sapiens, UniProt P08581); test: Test A: HTRF Met test in 96-well format; type: biochemical
T1 construct: The recombinant DNA His-Tev-MET (956-1390) in pFastBac(Invitrogen); His (N, cleaved yes); Tev (TEV protease site) (N, cleaved yes); made in house; host or cells: SF21 insect cells (baculovirus, pFastBac)
Procedure, shortened: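 Percent inhibition was calculated from the HTRF 665/620 ratio, using Eu-cryptate anti-phosphotyrosine PT66 plus streptavidin-XL added with EDTA and read after 2 h. The reaction ran 10 min at room temperature: 5 nM tag-cleaved MET (956–1390), 10 µM ATP, 1 µg/ml poly-GAT, and compound from 0.17 nM to 10 µM in 3% DMSO.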

[2] = target: RON (Homo sapiens, UniProt Q04912); test: Test B: HTRF RON test in 96-well format; type: biochemical
Procedure, shortened: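 RON 5 nM pre-incubated 30 min at RT with compound (0.17 nM–10 μM final, 3% DMSO) in MOPS 10 mM pH 7, DTT, Tween 20. Reaction with biotinylated poly-(GAT) 1 μg/ml, ATP 10 μM, MgCl2 5 mM, 30 min RT. Eu-anti-pTyr/streptavidin-XL665 HTRF, 665/620 ratio gives % inhibition, IC50.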

[3] = tested on: MKN45 cells; test: Test D: cellular proliferation by 14C-thymidine pulse, MKN45 cells; type: cell-based; conditions: cell line not stated (HCT116 or MKN45)
Procedure, shortened: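 MKN45 cells (7500/well, RPMI + 10% foetal calf serum) treated with 10 concentrations, 10000 to 0.3 nM in 3-fold steps, duplicate. 14C-thymidine (0.1 μCi/well) added at 72 h; incorporation counted after 24 h pulse, 96 h total treatment.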

[4] = Homo sapiens, MKN-45, cellular proliferation by 14C-thymidine pulse

T1 sequence (P08581 956-1390): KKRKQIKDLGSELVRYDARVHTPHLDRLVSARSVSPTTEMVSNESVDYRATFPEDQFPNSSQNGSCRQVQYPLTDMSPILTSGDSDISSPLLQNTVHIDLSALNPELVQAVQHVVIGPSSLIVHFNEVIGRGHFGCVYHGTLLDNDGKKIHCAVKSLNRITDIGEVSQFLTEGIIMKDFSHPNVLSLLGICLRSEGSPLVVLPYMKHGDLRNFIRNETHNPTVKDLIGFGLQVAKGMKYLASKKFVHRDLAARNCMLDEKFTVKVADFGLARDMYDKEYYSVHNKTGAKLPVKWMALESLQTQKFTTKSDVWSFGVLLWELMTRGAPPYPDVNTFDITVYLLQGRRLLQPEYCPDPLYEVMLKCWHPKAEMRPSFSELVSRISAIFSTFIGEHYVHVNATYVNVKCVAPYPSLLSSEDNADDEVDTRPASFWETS
RON, sequence (Q04912 25-1400): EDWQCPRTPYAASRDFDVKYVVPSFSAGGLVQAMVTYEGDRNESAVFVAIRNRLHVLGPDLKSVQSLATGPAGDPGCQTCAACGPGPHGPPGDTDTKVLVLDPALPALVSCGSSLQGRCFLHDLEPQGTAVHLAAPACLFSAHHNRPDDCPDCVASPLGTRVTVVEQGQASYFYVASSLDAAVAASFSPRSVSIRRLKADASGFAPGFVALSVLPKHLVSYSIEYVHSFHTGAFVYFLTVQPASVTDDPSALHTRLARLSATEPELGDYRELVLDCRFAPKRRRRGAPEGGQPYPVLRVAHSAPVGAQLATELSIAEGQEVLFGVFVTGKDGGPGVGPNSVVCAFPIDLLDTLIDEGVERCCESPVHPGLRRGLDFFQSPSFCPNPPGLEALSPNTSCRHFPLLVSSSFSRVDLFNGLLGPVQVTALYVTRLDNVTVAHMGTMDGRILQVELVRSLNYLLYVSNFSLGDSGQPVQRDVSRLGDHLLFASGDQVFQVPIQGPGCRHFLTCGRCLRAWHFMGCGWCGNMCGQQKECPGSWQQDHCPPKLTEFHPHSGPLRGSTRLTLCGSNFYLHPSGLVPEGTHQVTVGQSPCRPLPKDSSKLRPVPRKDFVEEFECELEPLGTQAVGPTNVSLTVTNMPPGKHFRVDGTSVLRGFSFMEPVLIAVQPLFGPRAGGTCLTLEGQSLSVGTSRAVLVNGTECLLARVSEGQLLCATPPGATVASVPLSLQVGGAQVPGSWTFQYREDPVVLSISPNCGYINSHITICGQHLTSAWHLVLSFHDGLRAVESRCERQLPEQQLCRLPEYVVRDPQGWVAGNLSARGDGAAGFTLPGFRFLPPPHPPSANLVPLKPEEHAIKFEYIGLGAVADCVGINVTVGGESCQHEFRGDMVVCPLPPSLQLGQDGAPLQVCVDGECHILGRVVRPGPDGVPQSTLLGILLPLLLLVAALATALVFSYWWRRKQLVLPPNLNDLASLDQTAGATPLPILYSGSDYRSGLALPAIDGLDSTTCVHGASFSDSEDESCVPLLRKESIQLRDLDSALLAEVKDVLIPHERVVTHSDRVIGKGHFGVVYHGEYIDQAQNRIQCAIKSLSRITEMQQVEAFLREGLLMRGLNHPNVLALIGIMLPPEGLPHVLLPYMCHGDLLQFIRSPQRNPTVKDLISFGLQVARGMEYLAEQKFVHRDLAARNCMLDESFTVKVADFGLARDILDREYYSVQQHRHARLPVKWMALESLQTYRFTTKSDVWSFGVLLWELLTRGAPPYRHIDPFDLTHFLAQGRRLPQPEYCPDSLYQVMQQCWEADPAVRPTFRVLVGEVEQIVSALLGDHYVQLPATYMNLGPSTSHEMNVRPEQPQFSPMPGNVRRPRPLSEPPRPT

SMILES: CC(Oc1cc2sc(NC(=O)NCCC3CCCN3C)nc2cc1F)c1c(Cl)ccc(F)c1Cl (stereo not shown) [Example 79, 1-{6-[1-(2,6-dichloro-3-fluorophenyl)ethoxy]-5-fluoro-1,3-benzothiazol-2-yl}-3-[2-(1-methylpyrrolidin-2-yl)ethyl]urea]
IC50 [1]: < 100 nM
IC50 [2]: < 500 nM
IC50 [3, 4]: 500 to 10000 nM
melting point: 78 to 89 °C

SMILES: CC(Oc1cc2sc(NC(=O)NCCN(C)C(=O)OC(C)(C)C)nc2cc1F)c1c(Cl)ccc(F)c1Cl (stereo not shown) [Example 95]
IC50 [1]: < 100 nM
IC50 [2]: 500 to 10000 nM
IC50 [3, 4]: 500 to 10000 nM

SMILES: CC(Oc1cc2[nH]c(NC(=O)NCCN3CCOCC3)nc2cc1F)c1c(Cl)ccc(F)c1Cl (stereo not shown) [Example 6, 1-{6-[1-(2,6-dichloro-3-fluorophenyl)ethoxy]-5-fluoro-1H-benzimidazol-2-yl}-3-(2-morpholin-4-ylethyl)urea]
IC50 [1]: < 100 nM
IC50 [2]: < 500 nM
IC50 [3, 4]: 500 to 10000 nM
melting point: 190 to 192 °C

SMILES: O=C(Nc1nc2ccc(OCc3c(Cl)cccc3Cl)cc2[nH]1)C1CC1 [Example 7, N-{6-[(2,6-dichlorobenzyl)oxy]-1H-benzimidazol-2-yl}cyclopropane carboxamide]
IC50 [1]: < 100 nM
IC50 [2]: 500 to 10000 nM
IC50 [3, 4]: < 500 nM
melting point: 133 to 135 °C

SMILES: CC(Oc1cc2sc(NC(=O)NCCN3CCN(C)CC3)nc2cc1F)c1c(Cl)ccc(F)c1Cl (single isomer, unassigned) [Example 77, 1-{6-[(1S*)-1-(2,6-dichloro-3-fluorophenyl)ethoxy]-5-fluoro-1,3-benzothiazol-2-yl}-3-[2-(4-methylpiperazin-1-yl)ethyl]urea]
IC50 [1]: < 100 nM
IC50 [2]: 500 to 10000 nM
IC50 ([3]; cellular proliferation by 14C-thymidine pulse): 500 to 10000 nM

SMILES: CC(Oc1cc2sc(NC(=O)NCCN3CCN(C)CC3)nc2cc1F)c1c(Cl)ccc(F)c1Cl (single isomer, unassigned) [Example 76, 1-{6-[(1R*)-1-(2,6-dichloro-3-fluorophenyl)ethoxy]-5-fluoro-1,3-benzothiazol-2-yl}-3-[2-(4-methylpiperazin-1-yl)ethyl]urea]
IC50 [1]: < 100 nM
IC50 [2]: < 500 nM
IC50 [3, 4]: < 500 nM

SMILES: CC(Oc1cc2sc(NC(=O)NCCN3CCCC3)nc2cc1F)c1c(Cl)ccc(F)c1Cl (single isomer, unassigned) [Example 85, 1-{6-[(1R*)-1-(2,6-dichloro-3-fluorophenyl)ethoxy]-5-fluoro-1,3-benzothiazol-2-yl}-3-[2-(pyrrolidin-1-yl)ethyl]urea]
IC50 [1]: < 100 nM
IC50 [2]: < 500 nM
IC50 [3, 4]: < 500 nM

SMILES: CC(Oc1cc2sc(NC(=O)NCCCN3CCCC3=O)nc2cc1F)c1c(Cl)ccc(F)c1Cl (stereo not shown) [Example 78, 1-{6-[1-(2,6-dichloro-3-fluorophenyl)ethoxy]-5-fluoro-1,3-benzothiazol-2-yl}-3-[3-(2-oxopyrrolidin-1-yl)propyl]urea]
IC50 [1]: < 100 nM
IC50 [2]: < 500 nM
IC50 [3, 4]: 500 to 10000 nM
melting point: 191 to 195 °C

SMILES: CC(Oc1cc2sc(NC(=O)NCCN)nc2cc1F)c1c(Cl)ccc(F)c1Cl (single isomer, unassigned) [Example 89, 1-(2-aminoethyl)-3-{6-[(1R*)-1-(2,6-dichloro-3-fluorophenyl)ethoxy]-5-fluoro-1,3-benzothiazol-2-yl}urea]
IC50 [1]: < 100 nM
IC50 [2]: 500 to 10000 nM
IC50 [3, 4]: 500 to 10000 nM

SMILES: CC(Oc1cc2sc(NC(=O)NCCN(C)Cc3ccccc3)nc2cc1F)c1c(Cl)ccc(F)c1Cl (stereo not shown) [Example 94, 1-{2-[benzyl(methyl)amino]ethyl}-3-{6-[1-(2,6-dichloro-3-fluorophenyl)ethoxy]-5-fluoro-1,3-benzothiazol-2-yl}urea]
IC50 [1]: < 100 nM
IC50 [2]: 500 to 10000 nM
IC50 [3, 4]: 500 to 10000 nM
melting point: 142 to 146 °C

SMILES: CNCCNC(=O)Nc1nc2cc(F)c(OC(C)c3c(Cl)ccc(F)c3Cl)cc2s1 (stereo not shown) [Example 96, 1-{6-[1-(2,6-dichloro-3-fluorophenyl)ethoxy]-5-fluoro-1,3-benzothiazol-2-yl}-3-[2-(methylamino)ethyl]urea]
IC50 [1]: < 100 nM
IC50 [2]: < 500 nM
IC50 [3, 4]: 500 to 10000 nM
melting point: 173 to 188 °C

SMILES: CC(Oc1cc2sc(NC(=O)NCCO)nc2cc1F)c1c(Cl)ccc(F)c1Cl (stereo not shown) [Example 98, 1-{6-[1-(2,6-dichloro-3-fluorophenyl)ethoxy]-5-fluoro-1,3-benzothiazol-2-yl}-3-(2-hydroxyethyl)urea]
IC50 [1]: < 100 nM
IC50 [2]: < 500 nM
IC50 [3, 4]: 500 to 10000 nM
melting point: 198 °C

SMILES: CC(Oc1cc2sc(NC(=O)NCCN)nc2cc1F)c1c(Cl)ccc(F)c1Cl (stereo not shown) [Example 88, 1-(2-aminoethyl)-3-{6-[1-(2,6-dichloro-3-fluorophenyl)ethoxy]-5-fluoro-1,3-benzothiazol-2-yl}urea]
IC50 [1]: < 100 nM
IC50 [2]: 500 to 10000 nM
IC50 [3, 4]: 500 to 10000 nM
melting point: 178 °C

Results, then the compound that gave them:

IC50 [1]: < 100 nM
IC50 [2]: 500 to 10000 nM
IC50 [3, 4]: 500 to 10000 nM
melting point: 170 °C
SMILES: CC(Oc1cc2sc(NC(=O)NCCOCc3ccccc3)nc2cc1F)c1c(Cl)ccc(F)c1Cl (stereo not shown) [Example 97, 1-[2-(benzyloxy)ethyl]-3-{6-[1-(2,6-dichloro-3-fluorophenyl)ethoxy]-5-fluoro-1,3-benzothiazol-2-yl}urea]

IC50 [1]: < 100 nM
IC50 [2]: 500 to 10000 nM
IC50 [3, 4]: < 500 nM
melting point: 178 to 190 °C
SMILES: CC(Oc1cc2sc(NC(=O)NCCN3CCCC3)nc2cc1F)c1c(Cl)ccc(F)c1Cl (stereo not shown) [Example 84, 1-{6-[1-(2,6-dichloro-3-fluorophenyl)ethoxy]-5-fluoro-1,3-benzothiazol-2-yl}-3-[2-(pyrrolidin-1-yl)ethyl]urea]

IC50 [1]: < 100 nM
IC50 [2]: 500 to 10000 nM
IC50 [3, 4]: 500 to 10000 nM
melting point: 74 to 83 °C
SMILES: CCN(CC)CCNC(=O)Nc1nc2ccc(OC(C)c3c(Cl)ccc(F)c3Cl)cc2s1 (stereo not shown) [Example 82, 1-{6-[1-(2,6-dichloro-3-fluorophenyl)ethoxy]-1,3-benzothiazol-2-yl}-3-[2-(diethylamino)ethyl]urea]

IC50 [1]: < 100 nM
IC50 [2]: < 500 nM
IC50 [3, 4]: 500 to 10000 nM
melting point: 176 to 179 °C
SMILES: COCCNC(=O)Nc1nc2cc(F)c(OC(C)c3c(Cl)ccc(F)c3Cl)cc2s1 (stereo not shown) [Example 81, 1-{6-[1-(2,6-dichloro-3-fluorophenyl)ethoxy]-5-fluoro-1,3-benzothiazol-2-yl}-3-(2-methoxyethyl)urea]

IC50 [1]: < 100 nM
IC50 [2]: 500 to 10000 nM
IC50 [3, 4]: 500 to 10000 nM
SMILES: CCN(CC)CCCNC(=O)Nc1nc2ccc(OC(C)c3c(Cl)ccc(F)c3Cl)cc2s1 (stereo not shown) [Example 83, 1-{6-[1-(2,6-dichloro-3-fluorophenyl)ethoxy]-1,3-benzothiazol-2-yl}-3-[3-(diethylamino)propyl]urea]

IC50 [1]: < 100 nM
IC50 [2]: < 500 nM
IC50 [3, 4]: < 500 nM
melting point: 131 to 134 °C
SMILES: CC(Oc1cc2sc(NC(=O)NCCN3CCN(C)CC3)nc2cc1F)c1c(Cl)ccc(F)c1Cl (stereo not shown) [Example 75, 1-{6-[1-(2,6-dichloro-3-fluorophenyl)ethoxy]-5-fluoro-1,3-benzothiazol-2-yl}-3-[2-(4-methylpiperazin-1-yl)ethyl]urea]
